# From the supplement of paper PMC10949913
# Columns and labels:
# Conditions in all cases: 48 h
# [1] = system: NCI-H295R; experiment: area under concentration-response curve (viability) (AUC (a.u.)); higher = less active
# Summary of the method: (§1)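 Library compounds were dispensed at 11 concentrations (23 nL each) onto three adrenocortical carcinoma cell lines in 1,536-well plates. Luminescence was recorded after 48 h using CellTiter-Glo, and signals were normalised per plate to vehicle and empty-well controls. Fitted concentration-response curves of inhibitory or non-responding classes only supplied the AC50 and area under the curve.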
# [2] = system: CU-ACC1; experiment: as above
# Summary of the method: as §1
# [3] = system: CU-ACC2; experiment: as above
# Summary of the method: as §1
# [4] = system: NCI-H295R; experiment: AC50 viability; higher = less potent
# Summary of the method: as §1
Structure (SMILES),area under concentration-response curve [1],area under concentration-response curve [2],area under concentration-response curve [3],AC50 viability [4]
N#Cc1c(NC(=O)c2cccc3ccccc23)sc2c1CCCC2,458,480,551,0.372 µM
COc1ccc(OC)c(-c2nnc3ccc(-c4ccc(OC)c(O[C@@H]5CCOC5)c4)nn23)c1,541,482,624,5.9 µM
COc1ccc(-c2ccc3c(N4CCOCC4)nc(N4C[C@@H](C)O[C@@H](C)C4)nc3n2)cc1CO,468,464,469,0.934 µM
COc1cc(OC)c(/C=C/[S+](=O)([O-])Cc2ccc(OC)c(OP(=O)(O)O)c2)c(OC)c1,407,503,484,0.0295 µM
C[C@@]1(C(=O)Nc2ccc(F)nc2)CCCN1c1nc(Nc2cc(C3CC3)[nH]n2)c2cccn2n1,375,505,480,0.148 µM
COC(=O)Nc1ccc(-c2nc(N3CCOCC3)c3cnn(C4CCN(Cc5cccnc5)CC4)c3n2)cc1,444,499,546,16.6 µM
COc1ccccc1C(=O)Nc1cc2c(cc1N1CCCCC1)n(C)c(=O)n2C,422,426,434,16.6 µM
Nc1nc2ccc(OC(F)(F)F)cc2s1,503,493,431,0.00372 µM
C[C@H]1Oc2cc(cnc2N)-c2c(nn(C)c2C#N)CN(C)C(=O)c2ccc(F)cc21,505,529,557,23.5 µM
O=C(/C=C/c1cccnc1)NCCCCC1CCN(C(=O)c2ccccc2)CC1,403,300,355,0.0209 µM
CCCCN(CCCC)CCC(O)c1cc2c(Cl)cc(Cl)cc2c2cc(C(F)(F)F)ccc12.Cl (stereo unspecified),548,538,615,23.5 µM
C=CCn1c(=O)c2cnc(Nc3ccc(N4CCN(C)CC4)cc3)nc2n1-c1cccc(C(C)(C)O)n1,393,452,531,1.86 µM
CN1CCN([C@H]2CC[C@H](n3cc(-c4ccc(Oc5ccccc5)cc4)c4c(N)ncnc43)CC2)CC1,481,488,517,9.34 µM
COC1=CC=C(C=C1)C2=NC3=CC(=CC=C3[NH]2)/C4=N/NC(=O)CC4C (stereo unspecified),541,532,632,18.6 µM
CC(C)(C)C1=CC(=C(NC(=O)C/2=C/NC3=C(C=CC=C3)C2=O)C=C1O)C(C)(C)C,426,532,572,18.6 µM
CC[C@H](C)[C@@H]([C@@H](CC(=O)N1CCC[C@H]1[C@H](OC)[C@@H](C)C(=O)N[C@@H](Cc1ccccc1)c1nccs1)OC)N(C)C(=O)[C@@H](NC(=O)[C@H](C(C)C)N(C)C)C(C)C,344,,363,33.2 µM
Cc1ncc(NC(=O)c2cccc(C(F)(F)F)c2)cc1-c1cnc(OC2CCOCC2)c(N2CCOCC2)c1,560,541,535,20.9 µM
Cc1nc(NC(=O)N2CCCC2C(N)=O)sc1-c1ccnc(C(C)(C)C(F)(F)F)c1 (stereo unspecified),548,531,626,13.2 µM
CCN1CCN(CC1)CC(=O)NC2=CC=C(C3=C2C4=C(S3)C=CC=C4)C5=C6O\C(=C/C(=O)C6=CC=C5)N7CCOCC7,494,555,610,2.57 µM
NC(=O)Nc1cc(-c2ccc(CN3CCOCC3)cc2)sc1C(N)=O,519,540,597,6.61 µM

Structure (SMILES),area under concentration-response curve [1],area under concentration-response curve [2],area under concentration-response curve [3],AC50 viability [4]
Cc1cc(C(=O)N2CCN(c3cccc(Cl)c3)CC2)n(-c2ccccc2)n1,515,,648,2.95 µM
COc1cc(OC)c(/C=C/[S+](=O)([O-])Cc2ccc(OC)c(NCC(=O)[O-])c2)c(OC)c1,386,464,479,0.059 µM
CCNCC[S+]([O-])(=O)NC[C@]1(S\C(=N/N1C(=O)C(C)(C)C)NC(=O)C(C)(C)C)C2=CC=CC=C2,415,452,544,0.209 µM
C[N]1N=CC2=C1C=C(C(=C2)OC3=CC=C(NC(=O)\C4=C\C=C(\C)N(C4=O)C5=CC=C(F)C=C5)C=C3F)C6=C[NH]N=C6,539,508,626,7.42 µM
CC[C@]1(O)C[C@H]2CN(CCC3=C([NH]C4=C3C=CC=C4)[C@@](C2)(C(=O)OC)C5=CC6=C(C=C5OC)N(C=O)[C@H]7[C@](O)([C@H](OC(C)=O)[C@]8(CC)\C=C/CN9CC[C@]67[C@H]89)C(=O)OC)C1,471,504,590,3.32 µM
O=C(Nc1ccncc1)C(=O)c1cn(Cc2ccc(Cl)cc2)c2ccccc12,418,471,419,0.372 µM
C[C@H](CN(C)C)Oc1nc(Nc2cc3cccc(Cl)c3cn2)cnc1C#N,456,491,585,14.8 µM
CC(C)(O)[C@H]1CC[C@H](Nc2ccc3ncc(-c4cccc(C(F)(F)F)c4)n3n2)CC1,460,434,490,11.8 µM
COc1c(C)c2c(c(O)c1C/C=C(\C)CCC(=O)O)C(=O)OC2,482,467,561,0.59 µM
O=C(Nc1ncc(-c2cc(C(F)F)nn2-c2c(Cl)cccc2Cl)s1)C1CC1,467,501,465,0.661 µM
C/C=C(\C)C(=O)N[C@@H](c1ccccc1)[C@@H](O)C(=O)O[C@H]1C[C@@]2(O)[C@@H](OC(=O)c3ccccc3)[C@@H]3[C@]4(OC(C)=O)CO[C@@H]4C[C@H](O)[C@@]3(C)C(=O)[C@H](OC(C)=O)C(=C1C)C2(C)C,418,447,515,0.833 µM
Cc1ccc([S+](=O)([O-])Nc2cc(-c3ccc(C#N)s3)ccc2C)cc1,373,506,507,0.0417 µM
CN1c2ccccc2C(=O)N2CCc3c([nH]c4ccccc34)C21 (stereo unspecified),512,506,633,2.63 µM
CCNC(=O)Nc1ccc(-c2nc3c(c(N4CCOC[C@@H]4C)n2)CCN(C2COC2)C3)cc1,520,,561,4.68 µM
NC(=O)[C@H]1CCS[C@@H]2C[C@]3(CCCN3C(=O)Cc3ccc(NC(=O)COc4ccc(Cl)cc4Cl)cc3)C(=O)N12,483,,528,14.8 µM
CC(C)[C@](O)(c1ccc2cc(OC(F)F)c(OC(F)F)cc2c1)c1c[nH]nn1,532,492,,23.5 µM
C[C@@H]1CCNC(=O)c2cc3ccc(C(=O)Nc4nc5ccccc5n4CCCN(C)C)cc3n21,553,513,,18.6 µM
CON(C)C(=O)N1/N=C(S[C@@]1(CCCN)C2=CC=CC=C2)/C3=CC(=CC=C3F)F,348,,517,2.09 µM
CC(C)(O)CNc1nc(Nc2ccnc(C(F)(F)F)c2)nc(-c2cccc(C(F)(F)F)n2)n1,417,402,,16.6 µM
CC[C@]12\C=C/CN3CC[C@]4([C@@H](N(C)C5=CC(=C(C=C45)[C@]6(C[C@H]7C[C@H](CN(C7)CC8=C6[NH]C9=C8C=CC=C9)C(C)(F)F)C(=O)OC)OC)[C@](O)([C@@H]1OC(C)=O)C(=O)OC)[C@H]23,527,538,,0.698 µM
